Measurements as given in ChEMBL document CHEMBL1800064, “Biaryl ethers as potent allosteric inhibitors of reverse transcriptase and its key mutant viruses: aryl substituted pyrazole as a surrogate for the pyrazolopyridine motif” (Bioorg Med Chem Lett, 2010).

Tests used:
[1] = test system: Human immunodeficiency virus 1; test: Antiviral activity against HIV1 R8 harboring wild type reverse transcriptase infected in human MT4 cells assessed as inhibition of viral spread in presence of 10% fetal bovine serum; format: functional; details: Human immunodeficiency virus 1, R8, MT4; read-out: CIC95
[2] = target: Human immunodeficiency virus type 1 reverse transcriptase (Human immunodeficiency virus 1, UniProt Q72547); test: Inhibition of wild type HIV1 reverse transcriptase by SPA assay
[3] = target: Human immunodeficiency virus type 1 reverse transcriptase (Human immunodeficiency virus 1, UniProt Q72547, K103N); test: Inhibition of HIV1 reverse transcriptase K103N mutant by SPA assay
[4] = test system: Human immunodeficiency virus 1; test: Antiviral activity against HIV1 R8 harboring reverse transcriptase infected in human MT4 cells assessed as inhibition of viral spread in presence of 50% normal human serum; format: functional; details: Human immunodeficiency virus 1, R8, MT4; read-out: CIC95
[5] = target: T1, Human immunodeficiency virus type 1 reverse transcriptase (Human immunodeficiency virus 1, UniProt Q72547, Y181C); test: Inhibition of HIV1 reverse transcriptase Y181C mutant by SPA assay
[6] = test system: Human immunodeficiency virus 1; test: Antiviral activity against HIV1 R8 harboring reverse transcriptase K103N mutant infected in human MT4 cells assessed as inhibition of viral spread in presence of 10% fetal bovine serum; format: functional; details: Human immunodeficiency virus 1, R8, MT4; read-out: CIC95
[7] = test system: Human immunodeficiency virus 1; test: Antiviral activity against HIV1 R8 harboring reverse transcriptase Y181C mutant infected in human MT4 cells assessed as inhibition of viral spread in presence of 10% fetal bovine serum; format: functional; details: Human immunodeficiency virus 1, R8, MT4; read-out: CIC95
[8] = test system: Human immunodeficiency virus 1; test: Antiviral activity against HIV1 R8 harboring reverse transcriptase K103N/Y181C double mutant infected in human MT4 cells assessed as concentration required to inhibit >95% viral spread in presence of 10% FBS; format: functional; details: Human immunodeficiency virus 1, R8, MT4; read-out: CIC95
[9] = target: T1, Human immunodeficiency virus type 1 reverse transcriptase; test: Inhibition of HIV1 reverse transcriptase Y181C mutant by electrochemiluminescent assay

Structure (SMILES) | IC95 [1] [nM] | Ki [2] [nM] | Ki [3] [nM] | IC95 [4] [nM] | Ki [5] [nM] | IC95 [6] [nM] | IC95 [7] [nM] | IC95 [8] [nM] | Ki [9] [nM]
COc1ccc(-c2noc(COc3ccc(Cl)c(Oc4cc(Cl)cc(C#N)c4)c3)n2)cc1 | > 8300 | 2.1 | 30 | > 8300 |  |  |  |  | 
N#Cc1cc(Cl)cc(Oc2cc(OCc3cc[nH]n3)ccc2Cl)c1 | 922 | 39 | 179 | 8300 | 140 | 8300 |  |  | 
N#Cc1cc(Cl)cc(Oc2cc(OCc3cc(-c4cccs4)[nH]n3)ccc2Cl)c1 | 168 | 1.6 | 4.6 | 307 | 49.5 | 922 | 178 |  | 
N#Cc1cc(Cl)cc(Oc2cc(OCc3cc(-c4ccco4)[nH]n3)ccc2Cl)c1 | 97 | 0.3 | 10 | 922 | 1.5 | 922 | 833 |  | 
N#Cc1cc(Cl)cc(Oc2cc(OCc3cc(-c4ccccn4)[nH]n3)ccc2Cl)c1 | 97 | 3.2 | 9.6 | 307 | 8.9 | 307 | > 833 |  | 
N#Cc1cc(Cl)cc(Oc2cc(OCc3cc(-c4cc[n+]([O-])cc4)[nH]n3)ccc2Cl)c1 | 44 | 5.3 | 21 | 307 | 46 | 307 | 500 |  | 
N#Cc1cc(Cl)cc(Oc2cc(OCc3cc(-c4ccccc4)[nH]n3)ccc2Cl)c1 | 222 | 0.9 | 2.4 | 924 | 12.5 | 924 | 833 |  | 
O=C1Nc2ccc(Cl)cc2[C@@](C#CC2CC2)(C(F)(F)F)O1 [EFAVIRENZ] | 4.3 |  |  | 38 |  | 232 | 8 | 272 | 
N#Cc1cc(Cl)cc(Oc2cc(OCc3n[nH]c(-c4ccncc4)c3Cl)ccc2Cl)c1 | 97 | 0.5 | 0.7 | 307 |  | 102 | 278 |  | 0.5
N#Cc1cc(Cl)cc(Oc2cc(OCc3nnc(-c4ccc(Cl)cc4)o3)ccc2Cl)c1 | 2780 | 4.9 | 11 | 830 |  |  |  |  | 
N#Cc1cc(Cl)cc(Oc2cc(OCc3cc(-c4cccnc4)[nH]n3)ccc2Cl)c1 | 32 | 1.1 | 5.2 | 307 | 6.7 | 307 | 278 |  | 
COc1ccc(-c2nnc(COc3ccc(Cl)c(Oc4cc(Cl)cc(C#N)c4)c3)o2)cc1 | 926 | 5.2 | 9.3 | 926 |  |  |  |  | 
N#Cc1cc(Cl)cc(Oc2cc(OCc3nc(-c4ccc(Cl)cc4)no3)ccc2Cl)c1 | > 8300 | 31 | 130 | > 8300 |  |  |  |  | 
N#Cc1cc(Cl)cc(Oc2cc(OCc3ncc(-c4ccc(Cl)cc4)o3)ccc2Cl)c1 | 926 | 2.1 | 4.4 | 277 |  |  |  |  | 
N#Cc1cc(Cl)cc(Oc2cc(OCc3nc(-c4ccccn4)no3)ccc2Cl)c1 | > 8300 | 29 | 69 | > 8300 |  |  |  |  | 
N#Cc1cc(Cl)cc(Oc2cc(OCc3cc(-c4ccccc4)no3)ccc2Cl)c1 | > 8300 | 31 | 115 | > 8300 | 763 | > 8330 |  |  | 
N#Cc1cc(Cl)cc(Oc2cc(OCc3cn(-c4ccccc4)nn3)ccc2Cl)c1 |  | 68 | 946 |  |  |  |  |  | 
N#Cc1cc(Cl)cc(Oc2cc(OCc3n[nH]c(-c4ccc(-c5nnn[nH]5)cc4)c3Cl)ccc2Cl)c1 | 2780 | 0.3 | 0.7 | > 8330 |  | 8330 |  |  | 0.6
N#Cc1ccc(-c2cc(COc3ccc(Cl)c(Oc4cc(Cl)cc(C#N)c4)c3)n[nH]2)cc1 | 34 | 0.7 | 3.6 | 922 |  | 307 |  |  | 12
N#Cc1cc(Cl)cc(Oc2cc(OCc3nc(-c4ccccc4)no3)ccc2Cl)c1 |  | 15 | 56 |  |  |  |  |  | 
N#Cc1cc(Cl)cc(Oc2cc(OCc3n[nH]c(-c4ccccn4)c3Cl)ccc2Cl)c1 | 922 | 0.4 | 0.5 | 922 |  | 2770 |  |  | 0.6
N#Cc1cc(Cl)cc(Oc2cc(OCc3cc(-c4ccccc4)on3)ccc2Cl)c1 | 926 | 2.6 | 5.5 | 8330 | 20.4 | 2780 | 833 |  | 
Cn1cc(-c2cc(COc3ccc(Cl)c(Oc4cc(Cl)cc(C#N)c4)c3)n[nH]2)cn1 | 32 | 0.7 | 4.2 | 307 |  | 102 | 278 |  | 3
N#Cc1cc(Cl)cc(Oc2cc(OCc3n[nH]cc3-c3ccccc3)ccc2Cl)c1 | 8300 | 460 | > 340 | > 8300 | > 3000 |  |  |  | 
